Laboratory results taken from patent US8354526B2, “Pyrido [4, 3-D] pyrimidinone derivatives as kinase inhibitors” (IRM LLC, priority 2008, dated 2013).
Like-named read-outs stand apart in the source and are kept apart here.

How the values were obtained:
[1] = target: T1, hSyk (full length) (Homo sapiens, UniProt P43405); assay: Inhibition of enzymatic Syk kinase activity (HTRF); type: biochemical
T1 construct: Purified recombinant hSyk (full length)
Protocol: (§1) Purified recombinant hSyk (full length) and Zap70 (kinase domain) diluted in assay buffer are dispensed in 384 well proxi-plates. […] 50 nL of diluted compounds are added to the enzyme solutions and incubated for […] at room temperature, after which ATP and biotynilated peptide substrate are added. Substrate phosphorylation is a function of the HTRF signal measured following the addition of Cisbio-HTRF reagents.

[2] = target: T2, Zap70 (kinase domain) (Homo sapiens, UniProt P43403); assay: Inhibition of enzymatic Zap70 kinase activity (HTRF); type: biochemical
T2 construct: Zap70 (kinase domain)
T2 sequence (P43403 338-600 limits assumed): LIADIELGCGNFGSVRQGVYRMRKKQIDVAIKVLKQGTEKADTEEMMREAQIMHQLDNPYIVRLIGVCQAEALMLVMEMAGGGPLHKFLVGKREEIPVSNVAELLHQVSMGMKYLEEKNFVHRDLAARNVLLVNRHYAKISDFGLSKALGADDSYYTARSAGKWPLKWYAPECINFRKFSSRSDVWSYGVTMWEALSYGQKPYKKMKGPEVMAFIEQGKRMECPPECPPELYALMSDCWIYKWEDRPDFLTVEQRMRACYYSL
Protocol: as §1

[3] = target: T3, BaF3/Tel-Syk (Homo sapiens, UniProt P43405); assay: BaF3/Tel-Syk cellular proliferation assay; type: cell-based, murine; conditions: read-out: IC50 in BaF3/Tel-Syk cellular assay
T3 construct: fused on or other part: Dimerization domain of Tel (ETV6), fused to Syk; it is part of the key as ETV6; The host cells also express luciferase, which serves only as the read-out; P41212 (Transcription factor ETV6)
Protocol: (§2) Cells are maintained in RPMI/10% fetal calf serum (RPMI/FCS) supplemented with penicillin 50 μg/mL, streptomycin 50 μg/mL and L-glutamine 200 mM. Untransformed Ba/F3 cells are similarly maintained with the addition of murine recombinant IL3. Cells are dispensed into 384-well format plate at 5000 cell/well in 50 μL of culture medium. Compounds of the invention are dissolved and diluted in dimethylsufoxide (DMSO). Twelve points 1:3 serial dilutions are made into DMSO to create concentrations gradient ranging from 10 mM to 0.05 μM. Cells are added with 50 nL of diluted compounds and incubated for 48 hours in cell culture incubator. Luminiscent signal is measured following the addition of Bright Glo® (Promega) luciferase substrate. IC50 values are calculated by linear regression analysis of the percentage inhibition of each compound at 12 concentrations.

[4] = target: T4, BaF3/Tel-KDR (Homo sapiens, UniProt P35968); assay: BaF3/Tel-KDR cellular proliferation assay; type: cell-based, murine; conditions: read-out: IC50 in BaF3/Tel-KDR cellular assay
T4 construct: fused on or other part: Dimerization domain of Tel (ETV6), fused to KDR; it is part of the key as ETV6; The host cells also express luciferase, which serves only as the read-out; P41212 (Transcription factor ETV6)
T4 sequence (P35968 834-1162 limits assumed, change not shown): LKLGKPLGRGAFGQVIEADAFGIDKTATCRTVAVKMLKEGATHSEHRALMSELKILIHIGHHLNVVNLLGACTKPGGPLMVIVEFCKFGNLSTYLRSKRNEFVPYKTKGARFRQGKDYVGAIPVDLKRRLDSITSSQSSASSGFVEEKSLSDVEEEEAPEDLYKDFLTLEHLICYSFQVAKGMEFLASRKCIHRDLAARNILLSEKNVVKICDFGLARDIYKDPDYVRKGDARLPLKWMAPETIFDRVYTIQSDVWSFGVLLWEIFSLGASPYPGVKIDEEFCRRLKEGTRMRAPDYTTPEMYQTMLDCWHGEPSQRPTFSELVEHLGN
Protocol: as §2

[5] = target: T5, BaF3/Tel-FMS (Homo sapiens, UniProt P07333); assay: BaF3/Tel-FMS cellular proliferation assay; type: cell-based, murine; conditions: read-out: IC50 in BaF3/Tel-FMS cellular assay
T5 construct: fused on or other part: Dimerizing part of Tel (ETV6), fused to FMS; it is part of the key as ETV6; P41212 (Transcription factor ETV6)
T5 sequence (P07333 582-910 limits assumed): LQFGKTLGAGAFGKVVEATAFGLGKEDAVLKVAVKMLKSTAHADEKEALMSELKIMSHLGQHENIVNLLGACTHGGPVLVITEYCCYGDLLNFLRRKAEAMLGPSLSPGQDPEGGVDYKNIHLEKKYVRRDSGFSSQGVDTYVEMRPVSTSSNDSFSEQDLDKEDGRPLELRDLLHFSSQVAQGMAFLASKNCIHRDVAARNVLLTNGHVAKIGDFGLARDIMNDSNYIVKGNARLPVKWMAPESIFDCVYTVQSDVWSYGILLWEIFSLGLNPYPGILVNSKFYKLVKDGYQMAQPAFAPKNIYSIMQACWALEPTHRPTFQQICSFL
Protocol: (§3) Compounds of the invention are tested for their antiproliferative effect on Ba/F3 cells expressing either Tel-TrkA, Tel-TrkB or Tel-TrkC and an additional panel of 34 selected diverse kinases activated by fusion to the dimerizing partners Bcr or Tel (Abl, AlK, BMX, EphA3, EphB2, FGFR2, FGFR3, FGFR4, FGR, FLT1, FLT3, FLT4, FMS, IGF1R, InsR, JAK1, JAK2, JAK3, KDR, Kit, Lck, Lyn, MER, MET, PDGFRb, RET, RON, Ros-1, Src, Syk, TIE2, TYK2, Tie1, ZAP70). The antiproliferative effect of these compounds on the different cell lines and on the non transformed cells were tested at 12 different concentrations of 3-fold serially diluted compounds in 384 well plates as described above (in media lacking IL3). The IC50 values of the compounds the different cell lines were determined from the dose response curves obtained as describe above.

[6] = target: T6, BaF3/Tel-KIT (Homo sapiens, UniProt P10721); assay: BaF3/Tel-KIT cellular proliferation assay; type: cell-based, murine; conditions: read-out: IC50 in BaF3/Tel-KIT cellular assay
T6 construct: fused on or other part: Dimerizing part of Tel (ETV6), fused to c-Kit; P41212 (Transcription factor ETV6)
T6 sequence (P10721 589-937 limits assumed, change not shown): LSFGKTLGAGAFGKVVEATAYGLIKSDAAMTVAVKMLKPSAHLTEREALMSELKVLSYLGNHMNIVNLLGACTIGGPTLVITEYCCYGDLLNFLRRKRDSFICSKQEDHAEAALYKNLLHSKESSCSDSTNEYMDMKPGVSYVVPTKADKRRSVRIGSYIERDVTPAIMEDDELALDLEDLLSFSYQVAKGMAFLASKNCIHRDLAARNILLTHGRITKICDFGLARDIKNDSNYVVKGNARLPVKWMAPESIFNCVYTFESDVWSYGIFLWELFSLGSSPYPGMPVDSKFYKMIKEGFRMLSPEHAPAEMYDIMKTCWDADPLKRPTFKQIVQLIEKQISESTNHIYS
Protocol: as §3
Compounds were tested for their ability to inhibit the proliferation of wt Ba/F3 cells and Ba/F3 cells transformed with Tel c-Kit fused tyrosine kinases. Untransformed Ba/F3 cells are maintained in media containing recombinant IL3. Cells are plated into 384 well TC plates at 5,000 cells in 50 ul media per well and test compound at 0.06 nM to 10 μM is added. […] After incubating the cells, 25 μL of BRIGHT GLO® (Promega) is added to each well following manufacturer's instructions and the plates are read using Analyst GT—Luminescence mode—50000 integration time in RLU.

[7] = IC50 for Syk inhibition, Table 2, read-out: Syk HTRF

`CN1CCC(c2ccc(Nc3nc(N4CCC(N5CCCCC5)CC4)cc4nc[nH]c(=O)c34)cc2)CC1` [Example 313] showed an IC50 [1, 7] of 42.7 nM.

`COc1ccc(-c2cc3ncn(C)c(=O)c3c(NCCc3ccccn3)n2)cc1OC` [Example 189] was tested, and the IC50 [1, 7] was 258 nM.

In the case of `O=c1[nH]cnc2cc(N3CCS(=O)(=O)CC3)nc(Nc3ccc(N4CCOCC4)nc3)c12` [Example 305], the IC50 [1, 7] is reported as 823 nM.

With `NCCCNc1cc2nc[nH]c(=O)c2c(Nc2ccc(N3CCOCC3)cc2)n1` [Example 13] the IC50 [1, 7] was 5.66 nM.

`O=c1[nH]cnc2cc(NCc3ccncc3)nc(Nc3ccc(N4CCOCC4)cc3)c12` [Example 25] showed an IC50 [1, 7] of 61 nM.

Work on `CC(C)Nc1nc(-c2ccc(C(C)(C)O)nc2)cc2ncn(C)c(=O)c12` [Example 6] yielded an IC50 [1, 7] of 190 nM.

In the case of `COCCOc1cc(-c2cc3ncn(C)c(=O)c3c(NCC(F)F)n2)ccc1OC` [Example 270], the IC50 [1, 7] is reported as 139 nM.

`COc1cc(-c2cc3ncn(C)c(=O)c3c(NC[C@H](C)O)n2)ccc1OCCCN1CCOCC1` [Example 372] was tested, and the IC50 [1, 7] was 114 nM.

Molecule `CC(C)Nc1nc(-c2cnn(C)c2)cc2ncn(C)c(=O)c12` [Example 317] has an IC50 [1, 7] of 126 nM.

With `CNc1cc(CNc2nc(-c3ccc(OC)c(OC)c3)cc3ncn(C)c(=O)c23)ccn1` [Example 183] the IC50 [1, 7] was 126 nM.

Work on `Cn1cnc2cc(-c3ccc4c(c3)NC(=O)C(C)(C)O4)nc(NCC(F)F)c2c1=O` [Example 273] yielded an IC50 [1, 7] of 198 nM.

`COc1ccc(-c2cc3ncn(C)c(=O)c3c(NCc3ccncc3)n2)cc1OC` [Example 114] was tested, and the IC50 [1, 7] was 40 nM.

For `O=c1[nH]cnc2cc(-c3ccccc3)nc(Nc3ccc(N4CCOCC4)cc3)c12` [Example 4a, 5-(4-morpholinophenylamino)-7-phenylpyrido[4,3-d]pyrimidin-4(3H)-one], the IC50 ([1]; read-out: IC50 in Syk enzymatic assay) was 90 nM, the IC50 [2] was 38000 nM and the GI50 [3] was 160 nM. It also gave a GI50 [4] of 1860 nM, a GI50 [5] of 7 nM and a GI50 [6] of 30 nM.

`COc1cc(-c2cc3ncn(C)c(=O)c3c(NCC(F)F)n2)ccc1OCCCN1CCOCC1` [Example 366] gave an IC50 [1, 7] of 113 nM.

For `O=c1[nH]cnc2cc(-c3cc(Cl)ccc3Cl)nc(Nc3ccc(N4CCOCC4)cc3)c12` [Example 254], the IC50 [1, 7] was 1120 nM.

`Cn1cnc2cc(-c3cccc(S(C)(=O)=O)c3)nc(NC3CC3)c2c1=O` [Example 349] showed an IC50 [1, 7] of 375 nM.

With `CNS(=O)(=O)c1cc(-c2cc3ncn(C)c(=O)c3c(NC3CCC3)n2)ccc1OC` [Example 415] the IC50 [1, 7] was 131 nM.

Molecule `CC(C)Nc1nc(-c2cnc3[nH]ccc3c2)cc2ncn(C)c(=O)c12` [Example 324] has an IC50 [1, 7] of 340 nM.

`Cn1cnc2cc(-c3ccc4c(c3)NC(=O)C4)nc(NCc3ccnc(N)c3)c2c1=O` [Example 278] gave an IC50 [1, 7] of 84.3 nM.

In the case of `CNc1nc(-c2ccc(C(C)(C)O)nc2)cc2ncn(C)c(=O)c12` [Example 352], the IC50 [1, 7] is reported as 376 nM.

Molecule `COc1cc(-c2cc3ncn(C)c(=O)c3c(NCc3ccncc3)n2)ccc1N` [Example 194] has an IC50 [1, 7] of 104 nM.

In the case of `COc1ccc(-c2cc3ncn(C)c(=O)c3c(Nc3ccc4cn[nH]c4c3)n2)cc1OC` [Example 418], the IC50 [1, 7] is reported as 531 nM.
